The subject of one assay is Ipomoea quamoclit. Kind of assay: Weed control screen: cypressvine morningglory. The class given is in vivo. Conditions: 1.0 lb ai/a, applied approximately 3 weeks after emergence, relative to non-treated. Here is the method:
(§1) Herbicides were applied at a spray volume of 280 L/ha with no adjuvant added to any herbicide mixture. Weed control was rated on a 0 to 100 percent phytoxicity scale with 0 being no plant injury/phytotoxicity and 100 being complete plant dessication. Twenty-one weeds were evaluated for response to herbicides (Table 3). The weeds selected were a mixture of weeds common in agronomic and horticultural crops. Herbicide was applied to all species approximately 3 weeks after emergence. Plant phytotoxicity rated as percent control relative to the non-treated.

Assay [1] relates to PPO1 from R1 and R2 E. indica biotypes (A212T) expressed in hemG mutant E. coli strain SASX38. Kind of assay: hemG mutant E. coli SASX38 complementation assay, R1 and R2 PPO1. The class given is cell-based, Eleusine indica. Conditions: R1 and R2 alleles; LB medium; 0, 10, 50, 100, 200 μM tested; 37° C., 20 h. An excerpt:
(§2) Two putative PPO-inhibitor resistant (R-) and susceptible (S-) plasmids were created to test the role of the chloroplast-targeted PPO1 in the E. indica biotypes. The PPO1 from R1, R2 and S E. indica biotypes were cloned into the pBAD-TOPO expression vector using the pBAD TOPO™ TA Expression kit (Invitrogen, Carlsbad, Calif.), respectively. The PPO1 product was amplified using the same PCR primers and PCR reaction system as cDNA sequencing, so that the PPO1 translation began at the ATG start codon. Three different pBAD-TOPO PPO1 constructs were created and sequenced to confirm they were identical with the PPO1 gene from R1, R2 and S E. indica biotypes and there were no other nucleotide polymorphisms in the cloning experiment. R- and S-PPO1 plasmids were used to transform a hemG mutant Escherichia coli strain SASX38 by electroporation. The SASX38 mutant strain was grown on LB medium supplemented with 10 μg/mL hematin. Expression of the PPO1 in the transformed colonies of the SASX38 mutant strain were induced on LB medium with 2% L-arabinose. […]

The subject of assay [2] is PPO1 from S E. indica biotype (Ala212) expressed in hemG mutant E. coli strain SASX38. Kind of assay: hemG mutant E. coli SASX38 complementation assay, S PPO1. The assay is classed as cell-based, Eleusine indica. Conditions: LB medium; 0, 10, 50, 100, 200 μM tested; 37° C., 20 h.
Source text: as §2

In another assay the test system is Kyllinga squamulata. Kind of assay: Weed control screen: cock's comb kyllinga. The class given is in vivo. Conditions: 1.0 lb ai/a, applied approximately 3 weeks after emergence, relative to non-treated. On the procedure: as §1
For a further assay, the system named is Solanum carolinense. Kind of assay: Weed control screen: Carolina horsenettle. The class given is in vivo. The settings on record: 1.0 lb ai/a, applied approximately 3 weeks after emergence, relative to non-treated. Here is the method:
as §1

In assay [3] the test system is Eleusine indica biotypes (S, R1, R2). Kind of assay: Herbicide rate screening assay (greenhouse, foliar-applied, visual injury). The class given is in vivo. The settings on record: for I50, estimated rate required to reduce Eleusine indica biotype by 50% (Visual Control/Injury) / I90, estimated rate required to reduce Eleusine indica biotype by 90% (Visual Control/Injury): injury scores 14 days after treatment; for Parameter estimate a of sigmoidal model y = a/(1 + exp(−(x − x0)/b)) for percent injury / Parameter estimate b of sigmoidal model y = a/(1 + exp(−(x − x0)/b)) for percent injury / Parameter estimate x0 of sigmoidal model y = a/(1 + exp(−(x − x0)/b)) for percent injury: x = log-transformed herbicide rate (kg/ha), 14 DAT; for Control at labelled rate application: oxadiazon 2.24 kg/ha. An excerpt:
Three E. indica biotypes from different locations were used in this study. The R1 biotype was collected in Country Club of Virginia, Richmond, Va., and the R2 biotype was from River Bend Golf, New Bern, N.C. These two biotypes were previous confirmed resistant to preemergence application of oxadiazon, but have not been screened to other PPO inhibitors. The S biotype was collected from the Alabama Agricultural Experiment Station, Plant Breeding Unit, Tallassee, Ala., which was confirmed susceptible to PPO inhibitors. Seeds of the mature plants were harvested, air dried and stored in the 4° C. freezer until planted in the greenhouse.
Greenhouse conditions were 30±3° C. at day/night temperature and ˜70% average relative humidity. The E. indica seeds were placed on the soil surface and lightly covered with sand in 28 cm*20 cm flats and watered as needed daily to ensure germination. Two weeks after emergence, seedlings were separated and transplanted to in individual 10-cm pots (volumes=0.5 L). Pots were filled with surface horizon of Marvyn sandy loam (fine-loamy, kaolinitic, thermic Typic Kanhapludults) soil with pH 6.4 and 1.2% organic matter. The plants were irrigated three times daily for 2 min with overhead irrigation and fertilized once at one week after transplanting at approximately 50 kg N ha^−1 with Scott's Miracle-Gro All-Purpose fertilizer (The Scotts Miracle-Gro Co. Marysville, Ohio). Plants were 5-10 cm in height with 3-5 tillers in size at the time of herbicide treatment.
Herbicide treatments were foliar-applied at 280 L/ha using an enclosed spray chamber with a single 8002E nozzle (TeeJet Spray Systems Co, Wheaton, Ill.) at 32 PSI. Four herbicides were selected for the experiment: oxadiazon (Ronstar FLO, Bayer Environmental Sci., Research Triangle Park, N.C.), sulfentrazone (Dismiss, FMC Corporation, Philadelphia, Pa.), flumioxazin (Sureguard, Valent Corp., Walnut Creek, Calif.) and lactofen (Cobra, Valent Corp., Walnut Creek, Calif.). All the herbicides are from different herbicide chemical families of PPO inhibitors: oxadiazoles, triazolinone, N-phenylphthalimide and diphenyl ether, respectively. Herbicides were applied at 7 different rates based on each herbicide label rate: oxadiazon ranging from 0.14 to 8.96 kg/ha, sulfentrazone from 0.07 to 4.50 kg/ha, flumioxazin from 0.08 to 5.70 kg/ha, and lactofen from 0.029 to 1.75 kg/ha. A non-treated control (0 kg/ha) was included. 192 plants of each biotype were tested and experiments were conducted as completely random design, three replications for two runs.
The visual injury rating scores per plant at 14 days after treatment (DAT) were recorded, where the visual injury rating scores were based on a 0 to 100 scale, which 0 is equated to no phytotoxicity and 100 is equated to complete control. Data subjected to ANOVA analysis at a significance level of P<0.05 using the PROC GLM procedure of SAS 9.4 (SAS Institute Inc., Cary, N.C.). All the herbicide rates were log transformed to make equal spacing between the herbicide treatments in order to facilitate regression analysis. The non-treated control was transformed to equal spacing based on the log rates of each herbicide, respectively. Data were fitted to a sigmoidal model using SigmaPlot 10.2 (Systat Software Inc., London, UK) using a sigmoidal function (Equation 1).
y=a/(1+e^(−((x−x0)/b))) (1)
In this fit sigmoidal model, where y represents E. indica visual damage relative to non-treated control (%), x represents the log-transformed herbicide rates (kg/ha), three parameters (a, b, x0) represents the y intercept.

Data on 1 compound can be found in patent publication US20220282271A1, “HERBICIDE RESISTANT PLANTS AND METHODS OF MAKING AND USING” (OFFICE OF INNOVATION ADVANCEMENT AND COMMERCIALIZATION, priority 2019, published 2022).

Bounds are passed on as bounds.

Turning to `CC(C)Oc1cc(-n2nc(C(C)(C)C)oc2=O)c(Cl)cc1Cl` [Oxadiazon, oxadiazon], the “Percent control (0 to 100)” value with Ipomoea quamoclit came out at 100%; in the assay with Kyllinga squamulata, 75%; in the assay with Solanum carolinense it was 60%. Moreover, the “Concentration at which the transformed E. coli were able to grow” value in assay [1] is “up to 200 μM”. Further, the “Concentration in medium that inhibited the growth of the transformed E. coli” value in assay [2] was found to be 50 µM. The “Increased resistance of oxadiazon resistant biotypes than the susceptible biotype” value in assay [3] (R1 and R2 vs S biotype, post-emergence applied) is recorded as “up to 20 fold”. The figures for the “I50, estimated rate required to reduce Eleusine indica biotype by 50% (Visual Control/Injury)” value in assay [3] (R1 biotype), in assay [3] (R2 biotype) and in assay [3] (S biotype) were 8.15 kg ha^−1, 8.88 kg ha^−1 and 0.32 kg ha^−1, respectively. Besides, the “I90, estimated rate required to reduce Eleusine indica biotype by 90% (Visual Control/Injury)” value is 14.60 kg ha^−1 in assay [3] (R1 biotype), 18.29 kg ha^−1 in assay [3] (R2 biotype) and 1.56 kg ha^−1 in assay [3] (S biotype). In addition, the figures for the “Parameter estimate a of sigmoidal model y = a/(1 + exp(−(x − x0)/b)) for percent injury” value in assay [3] (R1 biotype), in assay [3] (R2 biotype) and in assay [3] (S biotype) were 9925.40, 64371.40 and 91.25, respectively. The “Parameter estimate b of sigmoidal model y = a/(1 + exp(−(x − x0)/b)) for percent injury” value in assay [3] (R1 biotype) is listed as 0.53; in assay [3] (R2 biotype), 0.43; in assay [3] (S biotype), 0.25. In addition, the entries for the “Parameter estimate x0 of sigmoidal model y = a/(1 + exp(−(x − x0)/b)) for percent injury” value in assay [3] (R1 biotype), in assay [3] (R2 biotype) and in assay [3] (S biotype) were 3.75, 3.99 and −0.54, respectively. For the same compound, the “Control at labelled rate application” value in assay [3] (S biotype) is given as greater than 80%; in assay [3] (resistant biotypes (R1 and R2), flumioxazin 0.357 kg/ha, sulfentrazone 0.28 kg/ha, lactofen 0.22 kg/ha), less than 20%; in assay [3] (resistant biotypes (R1 and R2), flumioxazin 0.357 kg/ha, sulfentrazone 0.28 kg/ha, lactofen 0.22 kg/ha, listed as oxadiazon) it was “less than 10%”.
